How the values were obtained:
CDK2/CycA2 = CDK2/CycA2 (Homo sapiens, UniProt P24941); assay: CDK2 mobility shift assay (enzymatic activity of CDK2/CycA2); type: biochemical; conditions: 1.25 nM CDK2/CycA2, 37 μM ATP, FL Peptide 18, 120 min at room temperature; read-out: CDK2 IC50
Outline: (§1)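 Carna CDK5/p25 (0.154 nM) or CDK2/CycA2 (1.25 nM) was preincubated 30 min with compound, ATP ([…] for CDK5; 37 μM for CDK2) and 10 mM MgCl2 in HEPES pH 7.5. The reaction was started with 1.5 μM FL peptide (29 for CDK5, 18 for CDK2) and run 60 min (CDK5) or 120 min (CDK2) at room temperature. Product was read by mobility shift, with IC50 from a 4-parameter fit.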

CDK5/p25 = CDK5/p25 (Homo sapiens, UniProt Q00535); assay: CDK5 mobility shift assay (enzymatic activity of CDK5/p25); type: biochemical; conditions: for IC50: 0.154 nM CDK5/p25, FL peptide 29, 60 min at room temperature, read-out: CDK5 IC50; for CDK5/CDK2 specificity: fold more active against CDK5 than CDK2
Outline: as §1

Sequence of CDK5/p25 (Q00535 whole entry): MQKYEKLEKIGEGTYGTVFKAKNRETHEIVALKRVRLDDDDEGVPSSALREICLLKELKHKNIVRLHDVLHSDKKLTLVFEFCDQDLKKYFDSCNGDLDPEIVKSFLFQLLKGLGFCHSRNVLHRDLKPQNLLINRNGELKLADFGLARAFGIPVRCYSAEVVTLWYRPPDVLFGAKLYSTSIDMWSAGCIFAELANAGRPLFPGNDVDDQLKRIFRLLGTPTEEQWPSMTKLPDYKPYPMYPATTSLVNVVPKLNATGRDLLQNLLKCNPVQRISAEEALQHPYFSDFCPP
Sequence of CDK5/p25 (Q15078 99-307 partner limits assumed): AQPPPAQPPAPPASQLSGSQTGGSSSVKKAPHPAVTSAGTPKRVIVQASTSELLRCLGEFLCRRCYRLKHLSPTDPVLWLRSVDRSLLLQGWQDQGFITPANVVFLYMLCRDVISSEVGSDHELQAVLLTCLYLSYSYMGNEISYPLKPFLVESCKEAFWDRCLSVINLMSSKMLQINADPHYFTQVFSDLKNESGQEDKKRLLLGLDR

Compound | IC50 (CDK2/CycA2) [nM] | IC50 (CDK5/p25) [nM] | CDK5/CDK2 specificity (CDK5/p25)
CN1CCC2(CC1)CC2c1ccc2cnc(Nc3ccc(-n4cccn4)cc3F)cc2n1 (stereo not drawn) [Compound 164, N-[2-fluoro-4-(pyrazol-1-yl)phenyl]-2-[6-methyl-6-azaspiro[2.5]octan-1-yl]-1,6-naphthyridin-7-amine] | > 1000 | 100 to 1000 | ++ (greater than 10-fold and less than or equal to 100-fold more active against CDK5 than CDK2)
NC(c1ccc2cnc(Nc3ccc(-n4cccn4)cc3F)cc2n1)C1CCNCC1 (stereo not drawn) [Compound 165, 2-[amino(piperidin-4-yl)methyl]-N-[2-fluoro-4-(pyrazol-1-yl)phenyl]-1,6-naphthyridin-7-amine] | 100 to 1000 | 10 to 100 | ++ (greater than 10-fold and less than or equal to 100-fold more active against CDK5 than CDK2)
C=C(c1ccc2cnc(Nc3ccc(-n4ccc(CO)n4)cc3F)cc2n1)C1CCN(C)CC1 [Compound 168, [1-[3-fluoro-4-([2-[1-(1-methylpiperidin-4-yl)ethenyl]-1,6-naphthyridin-7-yl]amino)phenyl]pyrazol-3-yl]methanol] | 100 to 1000 | < 10 | +++ (greater than 100-fold more active against CDK5 than CDK2)
Fc1cc(-n2cccn2)ccc1Nc1cc2nc(C(F)(F)C3CCNCC3)ccc2cn1 [Compound 169, 2-[difluoro(piperidin-4-yl)methyl]-N-[2-fluoro-4-(pyrazol-1-yl)phenyl]-1,6-naphthyridin-7-amine] | 10 to 100 | < 10 | ++ (greater than 10-fold and less than or equal to 100-fold more active against CDK5 than CDK2)
CN(C)[C@H]1CC[C@@H](N(CC(=O)O)c2ccc3cnc(Nc4ccc(-n5ccc(CO)n5)cc4F)cc3n2)CC1 [Compound 182, [[7-([2-fluoro-4-[3-(hydroxymethyl)pyrazol-1-yl]phenyl]amino)-1,6-naphthyridin-2-yl][(1s,4s)-4-(dimethylamino)cyclohexyl]amino]acetic acid] | > 1000 | > 1000 | ++ (greater than 10-fold and less than or equal to 100-fold more active against CDK5 than CDK2)
CN1CCC(S(=O)(=O)c2ccc3cnc(Nc4ccc(-c5ccc(F)cc5)cc4F)cc3n2)CC1 [Compound 183, N-{3,4′-difluoro-[1,1′-biphenyl]-4-yl}-2-(1-methylpiperidin-4-ylsulfonyl)-1,6-naphthyridin-7-amine] | > 1000 | < 10 | +++ (greater than 100-fold more active against CDK5 than CDK2)
CC(O)(c1ccc2cnc(Nc3ccc(-n4cccn4)cc3F)cc2n1)C1CCNCC1 (stereo not drawn) [Compound 196, 1-(7-[[2-fluoro-4-(pyrazol-1-yl)phenyl]amino]-1,6-naphthyridin-2-yl)-1-(piperidin-4-yl)ethanol] | 100 to 1000 | < 10 | ++ (greater than 10-fold and less than or equal to 100-fold more active against CDK5 than CDK2)
CN1CCC(S(=O)(=O)c2ccc3cnc(Nc4ccc(-n5ccc(C(=O)O)n5)cc4F)cc3n2)CC1 [Compound 198, 1-(3-fluoro-4-((2-((1-methylpiperidin-4-yl)sulfonyl)-1,6-naphthyridin-7-yl)amino)phenyl)-1H-pyrazole-3-carboxylic acid] | 100 to 1000 | < 10 | +++ (greater than 100-fold more active against CDK5 than CDK2)
CN1CCC(NS(=O)(=O)c2ccc3cnc(Nc4ccc(-n5ccc(CO)n5)cc4F)cc3n2)CC1 [Compound 203, 7-([2-fluoro-4-[3-(hydroxymethyl)pyrazol-1-yl]phenyl]amino)-N-(1-methylpiperidin-4-yl)-1,6-naphthyridine-2-sulfonamide] | > 1000 | 100 to 1000 | + (10-fold or less more active against CDK5 than CDK2)
O=S(=O)(Cc1ccc2cnc(Nc3ccc(-n4ccc(CO)n4)cc3F)cc2n1)C1CCNCC1 [Compound 207, [1-[3-fluoro-4-([2-[(piperidine-4-sulfonyl)methyl]-1,6-naphthyridin-7-yl]amino)phenyl]pyrazol-3-yl]methanol] | > 1000 | 100 to 1000 | + (10-fold or less more active against CDK5 than CDK2)
O=S(=O)(c1ccc2cnc(Nc3ccc(-n4ccc(CO)n4)cc3F)cc2n1)N1CCNCC1 [Compound 208, [1-(3-fluoro-4-[[2-(piperazine-1-sulfonyl)-1,6-naphthyridin-7-yl]amino]phenyl)pyrazol-3-yl]methanol] | 100 to 1000 | 10 to 100 | + (10-fold or less more active against CDK5 than CDK2)
OC(c1ccc2cnc(Nc3ccc(-n4cccn4)cc3F)cc2n1)C1(O)CCNCC1 (stereo not drawn) [Compound 209, 4-[(7-[[2-fluoro-4-(pyrazol-1-yl)phenyl]amino]-1,6-naphthyridin-2-yl) (hydroxy)methyl]piperidin-4-ol] | > 1000 | 100 to 1000 | ++ (greater than 10-fold and less than or equal to 100-fold more active against CDK5 than CDK2)
NC1CCN(C(=O)c2ccc3cnc(Nc4ccc(-n5cccn5)cc4F)cc3n2)C1 (stereo not drawn) [Compound 215, 2-(3-aminopyrrolidine-1-carbonyl)-N-[2-fluoro-4-(pyrazol-1-yl)phenyl]-1,6-naphthyridin-7-amine] | > 1000 | 100 to 1000 | + (10-fold or less more active against CDK5 than CDK2)
CN1CCC(C(=O)c2ccc3cnc(Nc4ccc(-n5cccn5)cc4F)cc3n2)CC1 [Compound 217, N-[2-fluoro-4-(pyrazol-1-yl)phenyl]-2-(1-methylpiperidine-4-carbonyl)-1,6-naphthyridin-7-amine] | < 10 | < 10 | ++ (greater than 10-fold and less than or equal to 100-fold more active against CDK5 than CDK2)
CN1CCC(O)(C(O)c2ccc3cnc(Nc4ccc(-n5cccn5)cc4F)cc3n2)CC1 (stereo not drawn) [Compound 240, 4-[(7-[[2-fluoro-4-(pyrazol-1-yl)phenyl]amino]-1,6-naphthyridin-2-yl) (hydroxy)methyl]-1-methylpiperidin-4-ol] | > 1000 | 100 to 1000 | ++ (greater than 10-fold and less than or equal to 100-fold more active against CDK5 than CDK2)
NC1CCCN(C(=O)c2ccc3cnc(Nc4ccc(-n5cccn5)cc4F)cc3n2)C1 (stereo not drawn) [Compound 242, 2-(3-aminopiperidine-1-carbonyl)-N-[2-fluoro-4-(pyrazol-1-yl)phenyl]-1,6-naphthyridin-7-amine] | > 1000 | 100 to 1000 | ++ (greater than 10-fold and less than or equal to 100-fold more active against CDK5 than CDK2)
CN1CCN(S(=O)(=O)c2ccc3cnc(Nc4ccc(-n5ccc(CO)n5)cc4F)cc3n2)CC1 [Compound 245, [1-(3-fluoro-4-[[2-(4-methylpiperazin-1-ylsulfonyl)-1,6-naphthyridin-7-yl]amino]phenyl)pyrazol-3-yl]methanol] | 100 to 1000 | 100 to 1000 | + (10-fold or less more active against CDK5 than CDK2)
CCC(c1ccc2cnc(Nc3ccc(-n4ccc(CO)n4)cc3F)cc2n1)C1CCN(C)CC1 (stereo not drawn) [Compound 246] | > 1000 | 100 to 1000 | ++ (greater than 10-fold and less than or equal to 100-fold more active against CDK5 than CDK2)
CN1CCC(NS(=O)(=O)c2ccc3cnc(Nc4ccc(-n5ccc(CO)n5)cc4F)cc3n2)C1 (stereo not drawn) [Compound 248] | 100 to 1000 | 10 to 100 | + (10-fold or less more active against CDK5 than CDK2)
O=S(=O)(c1ccc2cnc(Nc3ccc(-n4ccc(CO)n4)cc3F)cc2n1)C1CCN(CC(O)CO)CC1 (stereo not drawn) [Compound 249] | 100 to 1000 | < 10 | ++ (greater than 10-fold and less than or equal to 100-fold more active against CDK5 than CDK2)
O=S(=O)(c1ccc2cnc(Nc3ccc(-n4ccc(CO)n4)cc3F)cc2n1)C1CCN(CC(O)CO)CC1 (stereo not drawn) [Compound 253] | 100 to 1000 | 10 to 100 | ++ (greater than 10-fold and less than or equal to 100-fold more active against CDK5 than CDK2)
CN1CCC(S(=O)(=O)c2ccc3cnc(Nc4cccc(C#CC(C)(C)O)c4)cc3n2)CC1 [Compound 256] | 10 to 100 | < 10 | +++ (greater than 100-fold more active against CDK5 than CDK2)
CN1CCC(S(=O)(=O)c2ccc3cnc(Nc4ccc(S(=O)(=O)N(C)C)cn4)cc3n2)CC1 [Compound 257] | 10 to 100 | 10 to 100 | + (10-fold or less more active against CDK5 than CDK2)
Cc1cc(OCCC(N)=O)ccc1Nc1cc2nc(S(=O)(=O)C3CCN(C)CC3)ccc2cn1 [Compound 258] | > 1000 | < 10 | +++ (greater than 100-fold more active against CDK5 than CDK2)
COc1cc(Nc2cc3nc(S(=O)(=O)C4CCN(C)CC4)ccc3cn2)ccc1NS(C)(=O)=O [Compound 259] | 10 to 100 | < 10 | ++ (greater than 10-fold and less than or equal to 100-fold more active against CDK5 than CDK2)
Cc1cc(C)cc(Nc2cc3nc(S(=O)(=O)C4CCN(C)CC4)ccc3cn2)c1 [Compound 260] | 100 to 1000 | < 10 | +++ (greater than 100-fold more active against CDK5 than CDK2)
CN1CCC(S(=O)(=O)c2ccc3cnc(Nc4ccc(CN5CCOCC5)cc4)cc3n2)CC1 [Compound 261] | 100 to 1000 | < 10 | +++ (greater than 100-fold more active against CDK5 than CDK2)
